Results on 1 compound are retold here after patent US20170112859A1, “METHOD OF TREATMENT USING AN ASSOCIATION OF LOSARTAN AND ACETYLSALICYLIC ACID, AND KIT” (BIOLAB SANUS FARMACEUTICA LTDA, priority 2014, published 2017).

The subject of one data set is platelet aggregation. Kind of data set: platelet aggregation tests with arachidonic acid or ADP as stimulants, volunteers' platelet-rich plasma. It counts as in vivo, human. Here is the method:
(§1) One group (Arm A) received 30 days of daily doses of 50 mg of losartan potassium and 81 mg of acetylsalicylic acid. The second group (Arm B) received over the same 30 day period, daily doses of 50 mg of losartan potassium and doses of 81 mg of acetylsalicylic acid only every three days.
(§2) Control of bioavailability for acetylsalicylic acid in the analyzed individuals was performed through platelet aggregation tests, using arachidonic acid and adenosine diphosphate (ADP) as stimulants, and through the measuring of thromboxane by immunoenzymatic techniques.
(§3) The test results shown in FIGS. 1 to 6 consider four periods: D0, which is the pre-test time D15—the fifteenth day of testing, D16—the sixteenth day of testing and D17—the seventeenth day testing.

Data set [1] addresses T1, platelet cyclooxygenase enzyme (Homo sapiens, UniProt P23219).
T1 construct: from tissue; host or cells: platelets of dosed healthy volunteers (ex vivo stimulation with arachidonic acid or ADP)
The experiment in a line: measurement of thromboxane B2 (TXB2) in stimulated platelet-rich plasma by immunoenzymatic technique. It counts as in vivo. Particulars: D15-D17. Here is the method:
as §1, §2
Such control is based on tests to evaluate the competition between two compounds for binding to a specific antibody, namely, free thromboxane 2 (TXB 2) to be analyzed and present in the samples tested, and marked thromboxane 2 (TXB 2), attached to a molecule of acetylcholinesterase and with constant concentration (provided by the test kits).
as §3

For data set [2], the system named is prostaglandin synthesis (PGE2) in gastric mucosa. Kind of data set: prostaglandin-E2 concentration in antrum biopsies collected during endoscopy, pre- and post-treatment. Type of data set: in vivo, human. Particulars: 30 days. Here is the method: as §1
To obtain this proof, endoscopic tests were performed on each volunteer, always before starting treatment and also after treatment, when biopsies were collected.
From these samples, collected from both Arm A and Arm B of the treatment, the inhibition of prostaglandin was measured.

For data set [3] the test system is unchanged. Particulars: daily use, as described in the prior art; cited from earlier work.
Where [4] appears, read: Arm A: 81 mg daily plus 50 mg losartan potassium daily.
The mark [5] stands for this setting: Arm B: 81 mg every three days plus 50 mg losartan potassium daily.

Molecules are shown by their SMILES. “Also recorded” adds a separate entry of the source.

T1 sequence (P23219 24-599): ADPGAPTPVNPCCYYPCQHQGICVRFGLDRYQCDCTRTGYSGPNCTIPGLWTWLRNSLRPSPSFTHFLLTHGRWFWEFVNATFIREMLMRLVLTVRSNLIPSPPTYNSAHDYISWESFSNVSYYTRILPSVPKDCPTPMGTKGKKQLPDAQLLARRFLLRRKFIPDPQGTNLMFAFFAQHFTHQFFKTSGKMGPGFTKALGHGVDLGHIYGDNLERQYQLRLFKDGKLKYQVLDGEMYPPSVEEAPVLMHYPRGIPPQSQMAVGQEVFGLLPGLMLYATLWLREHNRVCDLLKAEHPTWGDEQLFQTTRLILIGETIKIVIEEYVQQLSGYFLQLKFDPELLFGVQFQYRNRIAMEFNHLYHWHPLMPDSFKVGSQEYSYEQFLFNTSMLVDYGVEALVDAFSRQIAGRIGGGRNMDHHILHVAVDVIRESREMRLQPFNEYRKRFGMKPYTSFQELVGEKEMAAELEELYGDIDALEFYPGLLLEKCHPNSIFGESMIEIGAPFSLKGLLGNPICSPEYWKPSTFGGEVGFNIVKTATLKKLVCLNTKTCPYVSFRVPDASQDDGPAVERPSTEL

On to `CC(=O)Oc1ccccc1C(=O)O` [acetylsalicylic acid], for which the “level of platelet inhibition” value in the data set with platelet aggregation (Arm A (81 mg daily) compared with Arm B (81 mg every three days), both with 50 mg losartan potassium daily, 30 days, healthy volunteers, stimulants arachidonic acid 300 μg/ml or ADP 20 μM) is on record as “almost the same level of platelet inhibition”. In the data set with platelet aggregation (acetylsalicylic acid administered every three days), the “inhibitory effect of the platelet aggregation” value is “sustained”. The “inhibition of the platelet cyclooxygenase enzyme” value in data set [1] (setting [4]) and in data set [1] (setting [5]) was “satisfactory inhibition” each time. Besides, the figures for the “prostaglandin (PGE2) levels post-treatment versus pre-treatment basal” value in data set [2] (setting [4]) and in data set [2] (setting [5]) were “significant decrease” and “did not alter the basal dose; also recorded: remained unaltered”, respectively. Besides, the PGE2 levels entry in data set [3] is listed as “drastically reduces”.
